Experimental data from PMC6502434, “The arginine sensing and transport binding sites are distinct in the human pathogen Leishmania” (PLoS Neglected Tropical Diseases, 2019).

Biological target: T1, LdAAP3 (Leishmania donovani, UniProt Q86G79)
T1 construct: native transporter in intact mid-log promastigotes, not overexpressed; no construct
T1 sequence (Q86G79 1-480): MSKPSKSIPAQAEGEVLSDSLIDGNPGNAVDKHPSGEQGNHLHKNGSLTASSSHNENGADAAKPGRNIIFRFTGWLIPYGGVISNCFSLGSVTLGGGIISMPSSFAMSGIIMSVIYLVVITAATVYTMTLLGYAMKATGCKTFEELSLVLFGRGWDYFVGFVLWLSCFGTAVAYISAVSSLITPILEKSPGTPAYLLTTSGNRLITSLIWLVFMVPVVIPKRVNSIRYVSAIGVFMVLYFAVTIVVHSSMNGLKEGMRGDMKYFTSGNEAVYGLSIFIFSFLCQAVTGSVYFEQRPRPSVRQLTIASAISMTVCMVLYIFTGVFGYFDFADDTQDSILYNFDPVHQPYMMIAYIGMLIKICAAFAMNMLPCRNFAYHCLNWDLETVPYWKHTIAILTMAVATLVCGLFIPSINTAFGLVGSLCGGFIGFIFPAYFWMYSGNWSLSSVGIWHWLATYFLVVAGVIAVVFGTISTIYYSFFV
Experiment: inhibition of [3H]arginine uptake by intact promastigotes, rapid filtration
Type: cell-based
Settings: read-out: Percent arginine transport inhibition
From the text: inhibition of [3H]arginine uptake by intact promastigotes, rapid filtration on LdAAP3

Structure (SMILES) | inhibition at 1000 µM | further results
N=C(N)c1ccc(OCCCCCOc2ccc(C(=N)N)cc2)cc1 [compound 2, Pentamidine] | – | inhibition at 100 µM: 38%
CNC(=N)NCCC[C@H](N)C(=O)O [compound 3, N-Methyl L-Arginine Acetate] | 66% | –
N=C(N)NOCC[C@H](N)C(=O)O [compound 4, Canavanine] | – | inhibition at 500 µM: 40%
NC(=O)NCCC[C@H](N)C(=O)O [compound 9, L-citrulline] | 10% | –
